Data set [1] has as its system HEK293. Nature of the data set: MTT cytotoxicity assay, HEK293 control cells.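 On all read-outs here: Read-out is formazan absorbance at 570 nm from MTT reduction in 96-well plates, with three independent biological replicates.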 In kind it is cell-based, human. The conditions noted are these: for IC50: Homo sapiens, HEK293, MTT, 72 h, non-cancer cell line.
A short description of data set [2]: MTT cytotoxicity assay, HEK293 control cells.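 Further: Read-out is formazan absorbance at 570 nm from MTT reduction in 96-well plates, with three independent biological replicates.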 In kind it is cell-based, human. The following applies: human, HEK293 cells; 50 µM, 72 h, MTT. (In general: Tetrazolium dyes change colour on reduction, which living cells bring about.)
Data set [3] relates to HEK293. Nature of the data set: CFSE proliferation assay, HEK293. In kind it is cell-based, human. The conditions noted are these: 19 µM, 48 h. The procedure: HT29 and HEK293 cells were resuspended at 1 × 10^6/mL in DMEM F12 without FBS. A 5 mM CFSE stock solution carboxyfluorescein diacetate succinimidyl ester (Cell Proliferation Kit, Life Technologies, Carlsbad, CA, USA) in DMSO was added to a final concentration of 5 µM and incubated at 37 °C for 15 min protected from light. At the end of the incubation period, the cells were immediately washed twice in cold PBS 1X/no-FBS. Cells were washed three times in PBS 1×/10%-FBS and resuspended in the same medium and plated in 12-well plates at a density of 1 × 10^5 cells/200 µL medium and grown overnight at 37 °C in a 5% CO2 humidified atmosphere. […] The cells were collected and then analysed by flow cytometry (BD; FACScanto II, Mountain View, CA, USA) and data were processed using FCS Express v6 software. Two independent biological replicates were performed.

Another data set relates to HCT116. Nature of the data set: MTT cytotoxicity assay, HCT116. The conditions noted are these: Homo sapiens, HCT-116, 72 h, MTT; for cytotoxicity at 50 µM: read-out: % Cytotoxicity (50 µM) HCT116; for IC50: 0.05–50 µM. In kind it is cell-based. The procedure:
(§1) Cytotoxicity assays were performed by using the MTT reduction method as described previously. Briefly, cancer cell lines were plated in flat-bottom 96-well plates at a cell concentration of 5 × 10^3 cells/well for the fastest growing lines, such as HEK293 and HT29 cells and 1 × 10^4 cells/well for more slowly growing lines, such as HCT116, H1975, BxPC-3, AsPC-1, B16-F10 and DAOY. Then, cells were incubated with the synthesised compounds at different concentrations (from 0.05 to 50 µM) in 200 µL with 10% FBS in RPMI 1640 or DMEM F12 culture medium at 37 °C for 72 h. Later, 10 µL of MTT were added at a final concentration of 0.5 mg/mL, incubated at 37 °C for 4 h, and then solubilised with 10% sodium dodecyl sulphate (SDS) in 0.1 mM HCl and incubated overnight at 37 °C. Formazan formation was measured at 570 nm in a multiwell plate reader (Cytation 5, Biotek Instruments, Winooski, VT, USA). Three independent biological replicates were performed.

The test system of data set [4] is GLI1-responsive luciferase reporter in HCT116 cells. Kind of data set: HH-dependent GLI luciferase reporter assay in HCT116. In kind it is cell-based, human. The following applies: 24 h, 4s 1.5 µM, vismodegib 1 µM; for activation induced by the agonist purmorphamine: purmorphamine 20 µM. The procedure:
Luciferase and renilla activity were assayed with a dual-luciferase assay system according to the manufacturer’s instructions (Cignal Reporter Gli-luciferase, ADN, Qiagen, Hilden, Germany). Results were expressed as luciferase/renilla ratios and represent the mean of triplicate values in one assay.
Supplemental Figure S2: Luciferase reporter activity dependent on the Hh pathway.
This assay was performed in HCT116 cells stably transformed with a Gli responsive luciferase reporter gene and a renilla luciferase gene (normalization control), treated for 24 […]
renilla activity were assayed with the dual-luciferase assay system Cignal Reporter Gli - luciferase (ADN, Qiagen). Results are expressed as luciferase/renilla activity ratios and represent the mean of triplicate values from one assay. […]
(1 picture or pasted object on this page, not shown here)
(In general: Reporter assays use an easily measured gene product as a stand-in for the process of interest.)

A further data set deals with B16F10 cells. Kind of data set: MTS viability assay, B16F10. The data set is classed as cell-based, murine. The conditions noted are these: Mus musculus, B16-F10, 24 h. The procedure:
In the case of experiments using nanoemulsions, cell proliferation was evaluated after treatments. To do this the complete medium containing treatments was removed and replaced with fresh culture medium supplemented with 10% tetrazolium compound of the MTS® assay (CellTiter 96® Aqueous Non-Radioactive Cell Proliferation Assay), according to the manufacturer’s instructions (Promega, Madison, WI, USA). The soluble formazan produced by live cells was detected as absorbance at 490 nm on a Multiscan Reader (Synergy-H4, Biotek). Background values contributed by excess of cell debris and bubbles were measured at 650 nm and were subtracted.
Figure 7 Effect of 4s-NEM on the viability of cancer (B16F10) and non-cancer (HEK293) cells in vitro. Cells were treated with 4s-NEM at different concentrations for 24 h and their viability was evaluated using the MTS assay; SDS, the vehicle for NEM, and 4s free in the culture medium were used as controls. The IC50 was determined in each case. (A) Effect of 4s-NEM on B16F10 cells. Six independent experiments were performed in triplicate. Results are shown as the mean ± SEM. (B) Effect of 4s-NEM on HEK293 cells. Results are shown as the mean ± SEM of three separate experiments. (***) p < 0.001, (*) p < 0.05 vs. control, ns = non-significant. Data analysis was performed via a 2-way ANOVA Tukey’s multiple comparisons test.

For the next data set, the target named is T1, human WT SMO (Homo sapiens, UniProt Q99835).
T1 construct: Myc-DDK; expressed in transfected cells; host or cells: HEK293T
Kind of data set: BODIPY-cyclopamine displacement assay, WT SMO. The conditions noted are these: HEK293T transfected with WT SMO, BC 5 nM; read-out: IC50 for binding to WT SMO (BC displacement). The procedure: (§2) HEK293T cells were transfected with genes encoding human WT SMO tagged with Myc-DDK or human SMO D473H mutant tagged with Myc. Cells were washed in PBS supplemented with 0.5% FBS, fixed in 4% paraformaldehyde in PBS for 10 min, and incubated for 6 h at 37 °C in the same medium supplemented with BODIPY-cyclopamine (5 nM), with and without 4s at different concentrations ([…]). The cells were permeabilised with 0.2% Triton X-100 (Sigma, St. Louis, MO, USA). Dako Fluorescent Mounting solution (Dako, Carpinteria, CA, USA) was used as mounting medium and the Hoechst reagent for staining of cell nuclei. BODIPY (green) and Hoechst (blue) signals were analysed in three representative fields per coverslip (×20 magnification). Data were expressed as the percentage of BC incorporation observed with BC alone.

The next data set relates to tumour cell lines. Kind of data set: MTT cytotoxicity assay, summary over the tumour cell line panel. In kind it is cell-based, human. The procedure: as §1
The next data set deals with T2, human SMO D473H mutant (Homo sapiens, UniProt Q99835, D473H).
T2 construct: Myc; expressed in transfected cells; host or cells: HEK293T
Kind of data set: BODIPY-cyclopamine displacement assay, SMO D473H. In kind it is binding. The procedure:
as §2

This note sets out measurements from paper PMC8395040 (International Journal of Molecular Sciences, 2021).

Where only a bound is given, the exact number is not on record here.

One may read the IC50 as the concentration at which inhibition is half-maximal. A word on the melting point: it is the temperature, or range, at which the solid turns liquid.

T2 sequence (Q99835 28-787 D473H): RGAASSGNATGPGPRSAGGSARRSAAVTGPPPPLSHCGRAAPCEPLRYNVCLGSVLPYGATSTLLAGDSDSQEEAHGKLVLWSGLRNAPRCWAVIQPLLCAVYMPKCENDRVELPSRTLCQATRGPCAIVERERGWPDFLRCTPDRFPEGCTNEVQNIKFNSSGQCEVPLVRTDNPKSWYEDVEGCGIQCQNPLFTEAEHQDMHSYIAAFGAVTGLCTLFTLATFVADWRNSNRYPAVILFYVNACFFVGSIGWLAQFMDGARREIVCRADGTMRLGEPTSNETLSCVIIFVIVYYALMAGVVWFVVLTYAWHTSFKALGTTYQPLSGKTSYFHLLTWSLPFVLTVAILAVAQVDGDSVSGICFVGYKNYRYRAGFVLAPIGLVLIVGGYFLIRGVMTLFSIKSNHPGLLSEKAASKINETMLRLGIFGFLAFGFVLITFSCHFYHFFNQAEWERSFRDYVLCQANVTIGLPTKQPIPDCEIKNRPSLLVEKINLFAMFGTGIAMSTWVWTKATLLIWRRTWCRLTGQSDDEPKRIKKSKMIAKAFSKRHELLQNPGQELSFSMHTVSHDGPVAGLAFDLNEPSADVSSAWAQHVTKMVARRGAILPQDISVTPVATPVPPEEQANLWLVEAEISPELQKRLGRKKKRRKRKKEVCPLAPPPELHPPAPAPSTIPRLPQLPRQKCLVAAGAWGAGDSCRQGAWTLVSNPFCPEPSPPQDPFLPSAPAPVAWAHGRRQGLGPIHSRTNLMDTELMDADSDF
T1 sequence (Q99835 28-787): as the sequence (Q99835 28-787 D473H) above, with H446D counted along it

Turning to `CS(=O)(=O)c1ccc(C(=O)Nc2ccc(Cl)c(-c3ccccn3)c2)c(Cl)c1` [Vismodegib, reference compound], the IC50 in the data set on HEK293 [1] is more than 50 µM. The compound also showed a cytotoxicity at 72 h, 50 µM in [2] of less than 50%. Also, the “HEK293 cell proliferation (CFSE)” value in the data set with HEK293 [3] is listed as “less effect on reducing proliferation than 4s”. Also, in the data set with HCT116, the cytotoxicity at 50 µM is less than 50% and the IC50 is more than 50 µM. In [4], the “basal GLI1 transcription activity” value was “did not affect basal GLI1 transcription activity” and the “activation induced by the agonist purmorphamine” value is reported as “effectively reduced the activation”.
As to `CCCCCCn1cnc2c(-c3ccc(OC(F)(F)F)cc3)nc(N3CCN(c4ccncc4)CC3)nc21` [Compound 4s, 9-Hexyl-2-(4-(pyridin-4-yl)piperazin-1-yl)-6-(4-(trifluoromethoxy)phenyl)-9H-purine], the melting point fell in the range of 153 to 155 °C. In the data set on HEK293 [1], the “concentration at which effects on HEK293 cells were observed” value was “above 50 µM” and the IC50 is more than 50 µM. In [2], this compound returned a cytotoxicity at 72 h, 50 µM of less than 50%. Also, the IC50 in the data set with B16F10 cells turned out to be 27.5 µM. In addition, the “HEK293 cell proliferation (CFSE)” value with HEK293 [3] was “no effect”. In the data set on HCT116, the cytotoxicity at 50 µM was found to be 99 ± 0.4% and the IC50 was 1.3 ± 0.4 µM. The IC50 at human WT SMO came out at 0.95 µM. Moreover, in the data set on tumour cell lines, the “selectivity for cancer cells compared to HEK293 control cells” value was 40 times. The “cytotoxicity in tumour cell lines” value in the data set on tumour cell lines (50 µM, 72 h, MTT, tumour cell lines tested) is “more than 80%”. Moreover, the IC50 in the data set on tumour cell lines (Homo sapiens, depending on the tumour cell line, 72 h, read-out: IC50 range over tumour cell lines) fell in the range of 1.3 to 15 µM. In the data set on tumour cell lines (from IC50 values), the “fold increase in cytotoxicity compared to vismodegib” value is listed as approximately 40 fold. Besides, in data set [4], the “basal GLI1 transcription activity” value is on record as “did not affect basal GLI1 transcription activity” and the “activation induced by the agonist purmorphamine” value is listed as “effectively reduced the activation”. For the same compound, at human SMO D473H mutant (HEK293T expressing SMO-D473H), the “concentration above which toxic to SMO-D473H cells” value is on record as “above 5 µM”. The “binding to the SMO-D473H mutant receptor” value at human SMO D473H mutant (HEK293T expressing SMO-D473H, up to 5 µM) is recorded as “dose-dependent inhibition of binding”. At human SMO D473H mutant (suggested, no IC50 determinable), the “decrease of binding affinity with SMO-D473H mutant compared to WT SMO” value was “about 25%”.
